Measured values: patent publication US20240366594A1, “Small Molecule Inhibitors of Formation of Neutrophil-Derived Extracellular Traps (NETosis) and Uses Thereof” (The Brigham and Women's Hospital, Inc., priority 2021, published 2024)

Columns and labels:
[1] = tested on: human neutrophils; assay: Citrullinated histone H3 (CitH3) NET induction in PMA-stimulated human neutrophils; assay type: cell-based; conditions: for NET induction, measured as CitH3 staining: drugs 10, 2, 0.4, 0.08 μM or GSK484 10 μM for 1 h, then 1 μM PMA 3 h, FIGS. 1A and 5D
Description: FIGS. 1A-H. Class I/II HDACs drive NET formation • (A and B) Freshly purified human (A) or mouse (B) neutrophils were treated with the indicated HDAC inhibitors at different doses (10, 2, 0.4, 0.08 μM), or with GSK484 (10 μM), for 1 h and then stimulated with 1 μM PMA for 3 h. Cells were fixed and stained with anti-citrullinated histone H3 (CitH3) antibody. NETosis induction was measured as the level of anti-CitH3 fluorescent signal. PMA alone represents 100% of NET induction. “-”: Cells treated with the highest dose of the indicated drug but not activated with PMA. • (C and D) Human neutrophils were treated, or not, with ricolinostat or GSK484 and then stimulated with 1 μM PMA. NETosis induction was measured as area of nuclei stained with DAPI. (C) 3D reconstruction of nuclei in each treatment (grid size 7.8 μm). (D) Quantification of DAPI signal from multiple fields of view (D) (n=9 for unstimulated, not pretreated with any drug [NT] and ricolinostat, n=7 for GSK484). • (E and F) Human neutrophils were treated as in (C-D), and immunoblot analysis of the indicated proteins was performed. Relative quantification of band intensity was analyzed with ImageJ software (F). White violins plots depict the quantification of histone H3 acetylation; red violin plots depict the quantification of histone H3 citrullination. Immunoblot in E is representative of four independent experiments. Gasdermin D NT, gasdermin D N terminal; pMLKL, phospho-MLKL. • (G) Human (left) or murine (right) neutrophils were treated, or not, with ricolinostat (10 μM) and then stimulated with 1 μM PMA for 3 h. ROS production was measured by luminescence with luminol-HRP. Histograms represent the total amount of ROS produced overtime. • (H) Murine neutrophils were treated, or not, with ricolinostat (10 μM) and then stimulated with fluorescent E. coli at the indicated multiplicity of infection (MOI) for 1 h. The histogram represents the percentage of neutrophils positive for E. coli staining. Graphs show mean±SEM. Statistics were calculated using one-way ANOVA (A, B, D) and two-way ANOVA (F, G, H) (*p<0.05; **p<0.01; ****p<0.0001. n.s., not significant). Statistics refers to the comparison with neutrophils stimulated with PMA alone (A, B). Gray stars represent comparison of all experimental groups with the unstimulated control, and black stars represent comparison between drug-treated groups and cells treated with PMA only (NT) (D). See also FIGS. 5A-J.
FIGS. 5A-J. Class I/II HDACs drive NET formation. • A) Quantification of extracellular DNA released by neutrophils treated, or not, with 1 μM GSK484 for 1 h and then stimulated with 1 μM PMA for 4 hours. Unstimulated, neutrophils not treated with drugs were used as a control. • B) Freshly purified human neutrophils were treated with the indicated HDAC inhibitors at different doses (0.08, 0.4, 2 and 10 μM) for 1 hour. Extracellular DNA release was assessed in the supernatant 3 hours after PMA stimulation. The dotted line represents the amount of DNA released from neutrophils treated with PMA alone. “-”: cells treated with the highest dose of the indicated drug but not activated with PMA. • C) Freshly purified human neutrophils were stimulated for 1 h, 3 h or 5 h. Cells were fixed and stained with an anti-CitH3 antibody. NETosis induction was measured as level of anti-CitH3 fluorescent signal. 5h-PMA treatment represents 100% NET induction. • D) Representative images of freshly isolated human neutrophils treated or not with 10 μM of the indicated drugs and stimulated with 1 μM PMA for 3 hours. Cells were fixed and then stained for CitH3 (red) and nuclei (blue). Scale bar=100 μm. • E) Murine neutrophils were treated with ricolinostat or GSK484 and then stimulated with […] for 3 hours. NET induction was measured as in (C). […]

[2] = tested on: human neutrophils; assay: Immunoblot of PMA-treated human neutrophils (cell death markers, histone H3 acetylation and citrullination); assay type: cell-based; conditions: for PMA-induced gasdermin D (GSDMD) cleavage: 1 μM PMA; for PMA-induced gasdermin D (GSDMD) cleavage / activation of apoptosis or necroptosis: immunoblot FIG. 1E; for activation of apoptosis or necroptosis: PMA-treated cells exposed to drug; for H3 citrullination: compared with cells treated with PMA only
[3] = tested on: mice treated with S. aureus; assay: S. aureus pulmonary infection model (bacterial pneumonia); assay type: in vivo, mouse; conditions: for NETosis (citrullinated histone H3 and MPO-DNA complexes in BALF): ELISA, FIGS. 3E and 3F; for bacterial control (S. aureus CFU in lung homogenates): FIG. 3D; for numbers of neutrophils in the BALF: FIG. 3I; for neutrophils circulating in the blood: FIGS. 3H, 7A; for lung barrier alteration (albumin content in BALF): compared with S. aureus alone, FIG. 3C; for citrullinated histone H3-positive neutrophils in the BALF: cytofluorimetric quantification, FIG. 3G; for IL-1β / IL-6: in the BALF, compared with S. aureus only, FIGS. 7B-7D

COc1cc(C(=O)N2CC[C@@H](O)[C@@H](N)C2)cc2nc(-c3cc4ccccc4n3CC3CC3)n(C)c12 [GSK484]
NET induction, measured as CitH3 staining [1]: dramatically reduced NET induction
PMA-induced gasdermin D (GSDMD) cleavage [2]: not altered
activation of apoptosis or necroptosis [2]: excluded the activation of apoptosis or necroptosis
H3 citrullination ([2]; FIGS. 1E and 1F): completely abrogated
NETosis (citrullinated histone H3 and MPO-DNA complexes in BALF) [3]: potently decreased
bacterial control (S. aureus CFU in lung homogenates) [3]: not affected
numbers of neutrophils in the BALF [3]: increased numbers
neutrophils circulating in the blood [3]: no major differences
lung barrier alteration (albumin content in BALF) [3]: prevented
citrullinated histone H3-positive neutrophils in the BALF [3]: inhibit NETosis
IL-1β [3]: significantly decreased
IL-6 [3]: significantly decreased

O=C(CCCCCCNC(=O)c1cnc(N(c2ccccc2)c2ccccc2)nc1)NO [ricolinostat]
NET formation (level of CitH3), two independent donors ([1]; 10, 2, 0.4, 0.08 μM for 1 h, then 1 μM PMA, FIGS. 5H, 5I): inhibited NET formation to a comparable extent
NETosis (anti-CitH3 signal), comparison of class I/IIb and class IIb selective inhibitors ([1]; drugs 10, 2, 0.4, 0.08 μM 1 hour, then 1 μM PMA 3 hours, FIG. 5F): class I/IIb HDAC inhibition prevented NETosis
NET induction, measured as CitH3 staining [1]: prevented NET release in a dose-dependent manner with an efficacy comparable with GSK484
PMA-induced gasdermin D (GSDMD) cleavage [2]: not altered
activation of apoptosis or necroptosis [2]: excluded the activation of apoptosis or necroptosis
H3 citrullination ([2]; FIGS. 1E and 1F): significantly decreased
histone H3 acetylation ([2]; untreated as well as PMA-treated cells, FIGS. 1E and 1F): boosted
NETosis (citrullinated histone H3 and MPO-DNA complexes in BALF) [3]: potently decreased
bacterial control (S. aureus CFU in lung homogenates) [3]: not affected
numbers of neutrophils in the BALF [3]: increased numbers
neutrophils circulating in the blood [3]: no major differences
lung barrier alteration (albumin content in BALF) [3]: prevented
citrullinated histone H3-positive neutrophils in the BALF [3]: inhibit NETosis
IL-1β [3]: significantly decreased
IL-6 [3]: significantly decreased
morbidity (body temperature) ([3]; ricolinostat 30 mg/kg/dose i.p. at -24 h and -3 h, compared with S. aureus only and with S. aureus and GSK484, FIG. 3B): significantly decreased
